Data as given in the supplement of paper PMC10883282.
± gives the standard deviation of the averaged measurements.

What was measured:
Assay in all cases: relative viability vs DMSO control (72 h) (fraction); higher = more viable cells
RD-ES = system: RD-ES
How it was run: (§1)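 ATPLite readings, expressed as percent growth and averaged over up to triplicate wells, provided relative viability. Before reading, sarcoma cell lines seeded in 384-well plates to reach 80–90% confluence received 2.5 µl of serially diluted compound after 24 h, from source plates of 10 mM to 0.0002 mM. Plates were held 72 h at 37 °C, 5% CO2, with 0.1% DMSO as vehicle and a 5 µM positive control. The data were rescaled to 1 for full and 0 for none.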

SYO-1 = system: SYO-1
How it was run: as §1

SK-ES-1 = system: SK-ES-1
How it was run: as §1

G401 = system: G401
How it was run: as §1

VA-ES-BJ = system: VA-ES-BJ
How it was run: as §1

KHOS-240S = system: KHOS-240S
How it was run: as §1

HT1080 = system: HT1080
How it was run: as §1

RD = system: RD
How it was run: as §1

SW982 = system: SW982
How it was run: as §1

SW1353 = system: SW1353
How it was run: as §1

SK-LMS-1 = system: SK-LMS-1
How it was run: as §1

MES-SA = system: MES-SA
How it was run: as §1

CCS(=O)(=O)N1CC(CC#N)(n2cc(-c3ncnc4[nH]ccc34)cn2)C1 [Baricitinib]
Conditions	relative viability
G401, 0.00017 µM	0.955 ± 0.033
G401, 0.00051 µM	0.9564 ± 0.009
G401, 0.00152 µM	0.975 ± 0.025
G401, 0.00457 µM	0.963 ± 0.048
G401, 0.01372 µM	0.948 ± 0.034
G401, 0.04115 µM	0.98 ± 0.018
G401, 0.1235 µM	0.965 ± 0.033
G401, 0.3704 µM	0.961 ± 0.026
G401, 1.111 µM	0.978 ± 0.025
G401, 3.333 µM	0.959 ± 0.035
G401, 10 µM	0.887 ± 0.038
HT1080, 0.00017 µM	1.05 ± 0.029
HT1080, 0.00051 µM	1.04 ± 0.013
HT1080, 0.00152 µM	1.05 ± 0.017
HT1080, 0.00457 µM	1.04 ± 0.0015
HT1080, 0.01372 µM	1.05 ± 0.018
HT1080, 0.04115 µM	1.06 ± 0.029
HT1080, 0.1235 µM	1.024 ± 0.0035
HT1080, 0.3704 µM	1.04 ± 0.029
HT1080, 1.111 µM	1.02 ± 0.014
HT1080, 3.333 µM	1.07 ± 0.054
HT1080, 10 µM	1.024 ± 0.0044
KHOS-240S, 0.00017 µM	1.035 ± 0.0057
KHOS-240S, 0.00051 µM	1.022 ± 0.0081
KHOS-240S, 0.00152 µM	1.037 ± 0.0071
KHOS-240S, 0.00457 µM	1.04 ± 0.019
KHOS-240S, 0.01372 µM	1.03 ± 0.02
KHOS-240S, 0.04115 µM	1.019 ± 0.004
KHOS-240S, 0.1235 µM	1.05 ± 0.031
KHOS-240S, 0.3704 µM	1.03 ± 0.021
KHOS-240S, 1.111 µM	1.04 ± 0.042
KHOS-240S, 3.333 µM	0.958 ± 0.019
KHOS-240S, 10 µM	0.7777 ± 0.0044
MES-SA, 0.00017 µM	0.928 ± 0.015
MES-SA, 0.00051 µM	0.936 ± 0.037
MES-SA, 0.00152 µM	0.945 ± 0.047
MES-SA, 0.00457 µM	0.942 ± 0.013
MES-SA, 0.01372 µM	0.95 ± 0.018
MES-SA, 0.04115 µM	0.929 ± 0.037
MES-SA, 0.1235 µM	0.935 ± 0.028
MES-SA, 0.3704 µM	0.929 ± 0.026
MES-SA, 1.111 µM	0.893 ± 0.033
MES-SA, 3.333 µM	0.83 ± 0.013
MES-SA, 10 µM	0.753 ± 0.033
RD, 0.00017 µM	1.02 ± 0.032
RD, 0.00051 µM	1.02 ± 0.023
RD, 0.00152 µM	1.03 ± 0.027
RD, 0.00457 µM	1.03 ± 0.034
RD, 0.01372 µM	1.027 ± 0.01
RD, 0.04115 µM	0.991 ± 0.039
RD, 0.1235 µM	0.999 ± 0.024
RD, 0.3704 µM	1.03 ± 0.067
RD, 1.111 µM	1.051 ± 0.0038
RD, 3.333 µM	1.12 ± 0.024
RD, 10 µM	1.03 ± 0.014
RD-ES, 0.00017 µM	0.981 ± 0.015
RD-ES, 0.00051 µM	0.9701 ± 0.0086
RD-ES, 0.00152 µM	0.947 ± 0.03
RD-ES, 0.00457 µM	0.9683 ± 0.0032
RD-ES, 0.01372 µM	0.951 ± 0.012
RD-ES, 0.04115 µM	0.947 ± 0.041
RD-ES, 0.1235 µM	0.956 ± 0.017
RD-ES, 0.3704 µM	0.9847 ± 0.005
RD-ES, 1.111 µM	1.03 ± 0.03
RD-ES, 3.333 µM	1.04 ± 0.028
RD-ES, 10 µM	1.04 ± 0.0094
SK-ES-1, 0.00017 µM	0.959 ± 0.027
SK-ES-1, 0.00051 µM	1.01 ± 0.012
SK-ES-1, 0.00152 µM	1.004 ± 0.01
SK-ES-1, 0.00457 µM	0.986 ± 0.053
SK-ES-1, 0.01372 µM	0.9898 ± 0.0065
SK-ES-1, 0.04115 µM	0.987 ± 0.061
SK-ES-1, 0.1235 µM	0.987 ± 0.063
SK-ES-1, 0.3704 µM	0.958 ± 0.043
SK-ES-1, 1.111 µM	1.04 ± 0.034
SK-ES-1, 3.333 µM	1.05 ± 0.019
SK-ES-1, 10 µM	1.01 ± 0.054
SK-LMS-1, 0.00017 µM	1.06 ± 0.02
SK-LMS-1, 0.00051 µM	1.07 ± 0.042
SK-LMS-1, 0.00152 µM	1.07 ± 0.064
SK-LMS-1, 0.00457 µM	1.03 ± 0.024
SK-LMS-1, 0.01372 µM	1.02 ± 0.032
SK-LMS-1, 0.04115 µM	1.07 ± 0.037
SK-LMS-1, 0.1235 µM	1.06 ± 0.026
SK-LMS-1, 0.3704 µM	1.04 ± 0.029
SK-LMS-1, 1.111 µM	1.06 ± 0.07
SK-LMS-1, 3.333 µM	1.01 ± 0.03
SK-LMS-1, 10 µM	0.878 ± 0.067
SW982, 0.00017 µM	0.981 ± 0.043
SW982, 0.00051 µM	0.983 ± 0.026
SW982, 0.00152 µM	0.976 ± 0.02
SW982, 0.00457 µM	0.985 ± 0.053
SW982, 0.01372 µM	1.0047 ± 0.0004
SW982, 0.04115 µM	0.98 ± 0.023
SW982, 0.1235 µM	0.987 ± 0.02
SW982, 0.3704 µM	0.993 ± 0.021
SW982, 1.111 µM	0.98 ± 0.044
SW982, 3.333 µM	0.966 ± 0.021
SW982, 10 µM	0.748 ± 0.034
SW1353, 0.00017 µM	0.952 ± 0.013
SW1353, 0.00051 µM	0.931 ± 0.015
SW1353, 0.00152 µM	0.977 ± 0.037
SW1353, 0.00457 µM	0.975 ± 0.03
SW1353, 0.01372 µM	0.947 ± 0.036
SW1353, 0.04115 µM	0.961 ± 0.043
SW1353, 0.1235 µM	0.953 ± 0.028
SW1353, 0.3704 µM	0.969 ± 0.022
SW1353, 1.111 µM	0.985 ± 0.019
SW1353, 3.333 µM	0.915 ± 0.034
SW1353, 10 µM	0.786 ± 0.03
SYO-1, 0.00017 µM	0.994 ± 0.049
SYO-1, 0.00051 µM	1.01 ± 0.012
SYO-1, 0.00152 µM	1.01 ± 0.036
SYO-1, 0.00457 µM	0.994 ± 0.024
SYO-1, 0.01372 µM	0.999 ± 0.048
SYO-1, 0.04115 µM	0.993 ± 0.028
SYO-1, 0.1235 µM	0.988 ± 0.04
SYO-1, 0.3704 µM	0.985 ± 0.035
SYO-1, 1.111 µM	0.988 ± 0.046
SYO-1, 3.333 µM	0.952 ± 0.056
SYO-1, 10 µM	0.897 ± 0.044
VA-ES-BJ, 0.00017 µM	1.02 ± 0.05
VA-ES-BJ, 0.00051 µM	1.01 ± 0.038
VA-ES-BJ, 0.00152 µM	1.02 ± 0.055
VA-ES-BJ, 0.00457 µM	1.03 ± 0.023
VA-ES-BJ, 0.01372 µM	1.05 ± 0.053
VA-ES-BJ, 0.04115 µM	1.03 ± 0.021
VA-ES-BJ, 0.1235 µM	1.03 ± 0.038
VA-ES-BJ, 0.3704 µM	1.03 ± 0.015
VA-ES-BJ, 1.111 µM	1.04 ± 0.021
VA-ES-BJ, 3.333 µM	1.06 ± 0.018
VA-ES-BJ, 10 µM	0.996 ± 0.025
